Reference: US20230203485A1, “METHODS FOR MODULATING MHC-I EXPRESSION AND IMMUNOTHERAPY USES THEREOF” (Dana-Farber Cancer Institute, Inc., priority 2020, published 2023)

System: HLA-I and IFN pathway proteins
Assay: Whole proteome analysis of MCC cell lines with and without IFN-γ
Assay type: cell-based, human
Method: Protein expression of MCC cell lines was assessed. Briefly, cell pellets of MCC cell lines with and without IFN-γ treatment were lysed in 8M Urea and digested to peptides using LysC and Trypsin (Promega). 400 μg peptides were labeled with TMT10 reagents (Thermo Fisher, 126-MCC-290, 127N-MCC-350_IFN, 127C MCC-275_IFN, 128N MCC-275, 128C MCC-350, 129N_MCC-301_IFN, 129C-MCC-277_IFN, 130N-MCC-290_IFNy, 130C MCC-277, 131 MCC-301) and then pooled for subsequent fractionation and analysis. Pooled peptides were separated into 24 fractions using offline high pH reversed phase fractionation. 1 μg per fraction was loaded onto an analytical column (20-30 cm with 1.9 μm C18 Reprosil beads [Dr. Maisch HPLC GmbH], packed in-house, PicoFrit 75 μM inner diameter, 10 μM emitter [New Objective]). Peptides were eluted with a linear gradient (EasyNanoLC 1000 or 1200, Thermo Scientific) ranging from 6-30% Buffer B (either 0.1% formic acid or 0.5% AcOH and 80% or 90% acetonitrile) over 84 min 30-90% Buffer B over 9 min, and held at 90% Buffer B for 5 min at 200 nl/min. During data dependent acquisition, peptides were analyzed on a Fusion Lumos (Thermo Scientific). Full scan MS was acquired at a 60,000 from 300-1,800 m/z. AGC target was set to 4e5 and 50 ms. […]

Substance: IFN-γ: interferon gamma used to stimulate MCC cell lines
- class I upregulation in matched proteomes (4 MCC lines): confirmed
- HLA-I and IFN pathway upregulation at the protein level (MCC-350 (non-IFN-γ-responsive), including STAT1 phosphorylation): global lack of IFN-induced HLA-I and IFN pathway upregulation
